This passage reports IC50, half-life and EC50 results from ChEMBL document CHEMBL3120129, “Enantiomeric atropisomers inhibit HCV polymerase and/or HIV matrix: characterizing hindered bond rotations and target selectivity” (J Med Chem, 2014).

As a reminder, the IC50 is the point on the concentration scale where inhibition reaches its midpoint. A lower IC50 goes with greater potency in that assay. One may read the EC50 as the concentration giving half of the maximal effect. Higher therefore signals lower potency in that assay.

The nature of data set [1]: Inhibition of HIV1 NL-4.3 matrix (1 to 132) expressed in BL21(DE3) cells using [PI(4,5)P2]2 as substrate after 30 mins by fluorescence polarization assay. The arrangement: species or system Human immunodeficiency virus 1. Background: In fluorescence polarisation assays a small probe gives low polarisation when free and higher when bound to something large.
Data set [2] in a line: Inhibition of HCV genotype 1b hexa-histidine-tagged NS5B polymerase expressed in baculovirus infected cell system. The arrangement: species or system Hepatitis C virus subtype 1b.
The nature of data set [3]: Apparent half life of the compound assessed as atropisomer interconversion by HPLC analysis. It counts as physicochemical. The conditions noted are these: read-out: t1/2(app).
The subject of another data set is Hepatitis C virus. The data set can be described thus: Antiviral activity against HCV genotype 1b by HCV replicon assay. The format is functional, organism-based, Hepacivirus hominis. For orientation: In antiviral work, replicon cells carry a viral genome segment that copies itself.
For data set [4], the system named is Human immunodeficiency virus 1. The data set can be described thus: Antiviral activity against HIV1 NL-4.3. It counts as functional, organism-based. The note with it: Human immunodeficiency virus 1, NL-4.3.

SMILES strings stand for the structures.

In the case of `CC(C)N(c1ccc(Oc2ccccc2C(F)(F)F)cc1C(=O)O)C(=O)[C@H]1CC[C@H](C)CC1`, the IC50 in data set [1] was more than 175000 nM; in data set [2] it was 190 nM. As for `CC(C)N(c1cc(F)c(Oc2ncc(CCn3nccn3)cc2C(F)(F)F)cc1C(=O)O)C(=O)[C@H]1CC[C@H](C)CC1`, half-maximal inhibition in data set [2] (IC50) required 68 nM. Still for that read-out and setting: the figure for `COC[C@H](C)N(c1cc(F)c(Oc2ncc(CCn3nccn3)cc2C(F)(F)F)cc1C(=O)O)C(=O)[C@H]1CC[C@H](C)CC1` is 68 nM; for `COC[C@H](C)N(c1ccc(Oc2ncc(CCn3nccn3)cc2C(F)(F)F)c(F)c1)C(=O)[C@H]1CC[C@H](C)CC1` it is 56000 nM. In the case of `Cc1cc(OCc2cnc(Oc3ccc(N(C(=O)[C@H]4CC[C@H](C)CC4)C(C)C)c(C(=O)O)c3)c(C(F)(F)F)c2)c2ccccc2n1`, the half-life in data set [3] was 1.15 h. In the case of `C[C@H]1CC[C@H](C(=O)Nc2ccc(Oc3ccccc3C(F)(F)F)cc2C(=O)O)CC1`, the figures for the IC50 in data set [1] and in data set [2] were more than 95000 nM and 15000 nM, respectively.

As for `CN(c1ccc(Oc2ccccc2C(F)(F)F)cc1C(=O)O)C(=O)[C@H]1CC[C@H](C)CC1`, the IC50 in data set [1] was more than 100000 nM; in data set [2], 200 nM. A half-maximal effect in the data set with Hepatitis C virus (EC50) was put at 1100 nM. With `COc1ccc(C(=O)Nc2ccc(Oc3ccc(N(C(=O)[C@H]4CC[C@H](C)CC4)C(C)C)c(C(=O)O)c3)cc2)cc1`, the EC50 amounted to 2800 nM in data set [4] and 950 nM in the data set on Hepatitis C virus. Besides, the values for the IC50 in data set [1] and in data set [2] were 3400 nM and 630 nM, respectively.
